According to patent publication US20030186869A1, “Polymer compositions comprising antifibrotic agents, and methods of treatment, pharmaceutical compositions, and methods of preparation therefor” (priority 1990, published 2003):
Where two headings read alike, the source gives them in different places.

Legend:
[1] = system: Smooth muscle cells; experiment: Smooth muscle cell proliferation, cells counted daily; assay type: cell-based; details: six day period, compared to free cHyp and tHyp
Description: As can be noted with respect to FIGS. 6-9, the antifibrotic agents can be conjugated with PEG or another polymer and used to reduce cellular proliferation in the presence of collagen metabolism. In FIG. 6, the effect of free cHyp, polymeric cHyp and free trans-hydroxyproline were compared over a six day period. Smooth muscle cells were allowed to proliferate in the presence of free cHyp, polymeric cHyp and trans-hydroxyproline. The polymeric cHyp was produced as described above and contained ester linkages. On each day, the cells were trypsinized and counted with a hemocytometer. […] This is further supported by the data illustrated in FIG. 9, generated with fibroblast cells. […] See, e.g., FIG. 7, which presents a comparison of activity between the ester linked polymer and the amide linked polymer in FIG. 8.

[2] = Serum release study in fetal calf serum; assay type: in vitro ADME, bovine; details: six day incubation in FCS at 37° C.
Protocol: (§1) Buffers at various pH levels were prepared according to the method described in Davies, The Analyst, 1959, 4:248-251, with final ionic strengths of approximately 0.15 mol./L. Incubation samples were prepared by dissolving the dual-labeled conjugate in the appropriate medium to obtain a 50 mg/mL concentration and immediately syringe filtering through 0.45 μm nylon filters. Aliquots (25-30 μL) at specified time points were removed for GPC analysis-fractionation. Release rates were determined by monitoring cleavage of the radiolabeled [^3H]-cHyp from the radiolabeled [^14C] polymeric backbone. Separation of the relatively high molecular weight backbone from the low molecular weight drug was readily achieved via gel permeation chromatography, which is a size separation technique, followed by scintillation counting of the collected fractions. This necessitated using radiolabeled-conjugate concentrations of 50 mg/mL, i.e., 1 mg of conjugate injected per run, resulting in appropriate molecular weight analysis and specific activity determinations for the collected fractions. The serum release studies were conducted in 100% heat inactivated fetal calf serum (ΔFCS) at 37° C. at a concentration of 50 mg/mL of conjugate to ΔFCS, over a six day period.

[3] = Hydrolytic stability of dual-labeled conjugate in pH buffers (GPC, scintillation counting); assay type: physicochemical; details: six day period
Protocol: as §1, with “The serum release studies were conducted in 100% heat inactivated fetal calf serum (ΔFCS) at 37° C. at a concentration of 50 mg/mL of conjugate to ΔFCS, over a six day period.” left out
The polymeric conjugate consists of two distinctly different parts: (a) the polymeric backbone [poly(PEG-Lys)]; and (b) the pendent chain which consists of the drug molecule and its linking bond (cHyp). […] The hydrolytic stability of the polymeric conjugate was monitored over a six day period. The stability of the bonds present in the polymeric conjugate (ether, amide and urethane) was evaluated by incubation of the dual-labeled polymeric conjugate at the specified pH. Aliquot removal at specified time intervals, followed by GPC analysis with fractionation, permitted the quantitative monitoring of both carrier stability (molecular weight profile) and drug release (determination of [^3H]/[^14C] ratio by scintillation counting), as is shown in FIG. 12. In the pH range from 0 to 12, no change in either molecular weight, polydispersity or the [^3H] to [^14C] ratio could be detected throughout the test period.

[4] = system: RFL-6 cells; experiment: IC50 experiment, cytotoxicity / growth inhibition of RFL-6 rat fibroblast cells; assay type: cell-based; details: for IC50: mean ± SD (n)
Protocol: In this test two different synthesis batches of cis-hydroxyproline (CHOP) linked to PEG were tested, along with free CHOP. […] The differences between the two batches of CHOP-PEG are not significant.

[5] = system: Sprague-Dawley rats housed under hypoxic conditions (10% O2); experiment: Hypoxic rat model of pulmonary hypertension, CHOP-PEG; assay type: in vivo; details: 10 mg in 7-day minipump
[6] = system: Sprague-Dawley rats housed under hypoxic conditions (10% O2); experiment: as above; assay type: in vivo
Protocol: The anti-pulmonary hypertensive activity of the polymer compositions was tested in the hypoxic rat model (as described in detail above). […] PH is manifested histologically by vascular remodeling (collagen accumulation and fibroblastic hypertrophy), increased right ventricular work-load, thickening of the pulmonary artery, and hypertrophy of the right ventricular cardiac wall. […] Drug treatment can take place during the acute induction phase (days 0-7) or following the establishment of experimental PH (day 7 or later). Intravenous (i.v.), subcutaneous (s.c.), intra-tracheal instillation, and osmotic minipump delivery have been tested. Experiments are scored by obtaining the mean RVP measurement. Results are expressed as either RVP in mm Hg, or preferably as the reduction in the RVP by the formula: […] On day 7 the RVP was measured and compared to animals maintained in normoxic conditions (10.4 mm Hg) and to untreated animals kept in hypoxic conditions (19.3 mm Hg).

[7] = system: rats exposed to hypoxia (10% O2); experiment: cHyp (free or in liposomes) in rats developing hypoxic pulmonary hypertension; assay type: in vivo, rat; details: for Hct / RVP / RV/(LV + S) / Protein: Hypoxia, day 3; for Protein: pulmonary artery
Description: Six week old male Sprague Dawley rats (Crl:CD[SD]BR) weighing 185-205 g and 8 week old female Swiss mice (Crl:CP-1[ICR]BR) weighing 30-32 g (Charles River Breading Laboratories, Wilmington, Mass.) were maintained in a holding area one week prior to study and were fed food and water ad libitum. Rats were randomly allocated to hypoxia or air groups; mice breathed air. Animals were kept in a 12-hour light-dark cycle.
Four rats were placed in a polycarbonate chamber measuring 51×41×22 cm, and humidified gas (10% O2, 90% N2 flowed into the chamber at a rate of 400 ml/min. Gas samples were analyzed electrometrically (model MB53-MK2, Radiometer, Copenhagen, Denmark); PO2 ranged from 74-80 mmHg and PCO2 from 3-5 mmHg. Air-breathing rats were kept in cages in the same room and were pair-fed to hypoxic animals by weighing the food consumed by hypoxic animals and feeding the same amount of food to air-breathing animals to ensure similar final body weights. The chambers were opened once daily for 10 min. to clean, weigh and feed the animals.
A catheter was placed in the right ventricle of anesthetized rats (50 mg/kg pentobarbital intraperitoneally), and mean right ventricular pressure was measured using a pressure transducer (model P23Db, Statham, Instruments, Oxnard, Calif.) and recorded (model SP-2006, Statham Instruments). Pressure was measured after the animal had breathed air for 20 min. to eliminate the tonic response to hypoxia. After sacrifice by abdominal aorta transection, hematocrit and ratio of ventricular weights were measured, and the position of the catheter was confirmed at autopsy.
Main pulmonary artery (9 mm in length) was excised and analyzed for total protein and hydroxyproline contents as previously described. Tissue was hydrolyzed in 6N HCl at 118° C. for 48 hrs., diluted 1:10 in water, and a 0.1 ml aliquot was assayed for total protein by the ninhydrin method using leucine as standard and for hydroxyproline by a calorimetric method. Results of triplicate measurements were expressed as content per vessel.
Cis-4-hydroxy-L-proline dissolved in saline (free cHyp) or saline alone were injected subcutaneously (0.5 ml) or intravenously. Intravenous injections were performed in anesthetized animals (25 mg/kg thiopental, intraperitoneally). In rats, liposomes containing cHyp or empty liposomes were injected intravenously (18 μmol phospholipid in […]) via the dorsal vein of the penis over 5 sec using a 30 gauge needle. In mice, liposomes (18 μmol phospholipid in 0.5 ml) were injected into the tail vein.
Four modes of delivery of cHyp were used in rats. Free cHyp (200 or 100 mg/kg) was injected subcutaneously twice daily during exposure to hypoxia. A single dose of free cHyp (200 mg/kg) was given intravenously prior to exposure to hypoxia. Single doses of cHyp entrapped in liposomes (200 or 100 mg/kg) were injected intravenously prior to exposure to hypoxia. Multiple doses of cHyp in liposomes (200 mg/kg) were injected intravenously prior to hypoxia and every 5 days during exposure to hypoxia. Single doses of cHyp entrapped in liposomes after reticuloendothelial blockage were produced by intravenous injection of a single dose of empty liposomes followed 30 minutes later by a single intravenous dose of cHyp entrapped in liposomes (100 or 50 mg/kg) prior to exposure to hypoxia. The purpose was to enhance the localization of liposomes containing cHyp to the lungs by prior treatment with empty liposomes as temporary reticuloendothelial blocking agents.
In each animal, we assessed the effect of injection of cHyp on five parameters of exposure to hypoxia: mean right ventricular pressure (RVP) measured after the animal had been removed from the hypoxic environment, ratio of ventricular weights (RV/[LV+S]), hematocrit, and the contents of hydroxyproline and protein in the pulmonary artery. For each experimental group, comparisons were made to a group exposed to hypoxia and injected with a control substance and to a group exposed to air. […]

[8] = system: air-breathing rats; experiment: cHyp in air-breathing rats, parameters of exposure to hypoxia; assay type: in vivo, rat; details: for Hct / RV/(LV + S) / RVP / Protein: Air, day 3; for Protein: pulmonary artery
Description: In each animal, we assessed the effect of injection of cHyp on five parameters of exposure to hypoxia: mean right ventricular pressure (RVP) measured after the animal had been removed from the hypoxic environment, ratio of ventricular weights (RV/[LV+S]), hematocrit, and the contents of hydroxyproline and protein in the pulmonary artery. For each experimental group, comparisons were made to a group exposed to hypoxia and injected with a control substance and to a group exposed to air. For free cHyp, the control substance was saline; for cHyp entrapped in liposomes, the control substance was empty liposomes. Groups were age-matched; the air group was weight-matched to the hypoxic group injected with the control substance. Average results of each parameter were compared.
The sixth protocol studied whether cHyp injected in air breathing rats affected any of the parameters of exposure to hypoxia. Air groups were given free cHyp 200 or 100 mg/kg subcutaneously twice daily for 3 days (Groups 13 and 14) and were compared to saline injected animals. A group was injected with 200 mg/kg of cHyp in liposomes every 5 days during a 21-day exposure to air (Group 15), and results were compared to a group injected with empty liposomes every 5 days during a 21-day exposure to air.

[9] = 100 mg/kg subcutaneously for 3 days

Poly(PEG-Lys-cis-Hyp) Copolymer [polymeric cHyp]
Cellular proliferation [1]: significantly reduced

poly(PEG-[^14C]Lys-[^3H]cHyp) [dual-labeled polymeric conjugate]
cleavage of [3H]cHyp from the carrier [2]: did not occur to any appreciable extent
polymer backbone stability [2]: completely maintained
change in [3H]/[14C] ratios (amide stability) ([3]; pH 14, 25° C.): relatively no change
polymer backbone stability ([3]; pH 14, 25° C.): Massive backbone degradation
change in molecular weight, polydispersity or [3H] to [14C] ratio ([3]; pH range from 0 to 12, 25° C.): no change

poly(PEG-Lys-cHyp amide) [CHOP-PEG]
IC50 ([4]; PEG construct, read-out: IC50, AA-Lys-PEG): 5.6 ± 1.5 mM
inhibition of rat fibroblast growth, polymeric constructs versus free amino acid ([4]; two synthesis batches (1 and 2), FIG. 15): to a similar extent
reduction of RVP ([5]; day 10): 56%
reduction of RVP ([5]; day 14): 45%
reduction of RVP at minimum maximally effective dose ([6]; 0.8 mg total dose per animal, acute PH): > 70%
reduction of RVP ([6]; 10 mg in 7-day minipump, day 7): 74%
reduction of RVP ([6]; 7-day miniosmotic pump, both drug treated groups (1 or 4 mg, FIG. 18)): 76%
reduction of RVP ([6]; 7-day minipump, 1.0 mg): more than 50%
reduction of RVP ([6]; intratracheal instillation 90 mg on days 0 and 2): 51%
RVP ([6]; intratracheal instillation 90 mg on days 0 and 2, reduced from 20): 15 mm Hg
effect on RVP in rats under normoxic conditions ([6]; normoxic, intratracheal instillation, similar treatment): no effect
reduction of RVP ([6]; single i.v. dose 0.8 mg on day 0, RVP on day 7): ~50%
reduction of RVP ([6]; subcutaneous route, 7 day hypoxic rat model): minimal reduction of RVP
minimum dose that reduces RVP maximally in acute PH ([6]; total dose per animal): 0.8 mg

O=C(O)[C@@H]1C[C@H](O)CN1 (stereo in doubt) [cHyp, cis-4-hydroxy-L-proline]
IC50 ([4]; Rattus norvegicus, RFL-6, free amino acid, read-out: IC50, Free AA): 8.8 ± 5.1 mM
hematocrit [7, 9]: partial decrease
increased RVP, RV/(LV+S) or hydroxyproline or protein contents [7, 9]: did not prevent
pulmonary hypertension ([7]; 200 mg/kg subcutaneously twice daily for 3 days): partially prevented
Hct ([7]; 100 mg/kg sq bid × 3 days): 51 ± 1 %
RVP ([7]; 100 mg/kg sq bid × 3 days): 14 ± 1 mmHg
Hct ([7]; 200 mg/kg iv × 1 injection): 55 ± 1 %
RV/(LV + S) ([7]; 200 mg/kg iv × 1 injection): 0.32 ± 0.01 %
RVP ([7]; 200 mg/kg iv × 1 injection): 14 ± 1 mmHg
Hct ([7]; 200 mg/kg sq bid × 3 days): 51 ± 1 %
RV/(LV + S) ([7]; 200 mg/kg sq bid × 3 days): 0.25 ± 0.01 %
RVP ([7]; 200 mg/kg sq bid × 3 days): 10 ± 1 mmHg
minimal total dose required to prevent hypoxic pulmonary hypertension ([7]; at 5 days, subcutaneous (200 mg/kg twice daily)): 2000 mg/kg
effect on any parameter ([7]; injected intravenously prior to hypoxic exposure): no effect
Protein ([7]; 100 mg/kg sq bid × 3 days): 2.3 ± 0.3 mg/vessel
Protein ([7]; 200 mg/kg iv × 1 injection): 2.3 ± 0.3 mg/vessel
Protein ([7]; 200 mg/kg sq bid × 3 days): 1.4 ± 0.1 mg/vessel
Hct ([8]; 100 mg/kg sq bid × 3 days): 47 ± 1%
RV/(LV + S) ([8]; 100 mg/kg sq bid × 3 days): 0.25 ± 0.01%
RVP ([8]; 100 mg/kg sq bid × 3 days): 9 ± 1 mmHg
Hct ([8]; 200 mg/kg sq bid × 3 days): 46 ± 1%
RV/(LV + S) ([8]; 200 mg/kg sq bid × 3 days): 0.24 ± 0.01%
RVP ([8]; 200 mg/kg sq bid × 3 days): 9 ± 1 mmHg
effect on any of the measured parameters ([8]; air, 200 mg/kg or 100 mg/kg twice daily subcutaneously for 3 days): no effect
Protein ([8]; 100 mg/kg sq bid × 3 days): 1.2 ± 0.1 mg/vessel
Protein ([8]; 200 mg/kg sq bid × 3 days): 1.2 ± 0.1 mg/vessel

Poly(PEG-Lys-cis-Hyp) Copolymer [amide linked polymer]
Cellular proliferation [1]: further reduced
